Measured values published in article PMC8175350, “Drug repurposing screens identify chemical entities for the development of COVID-19 interventions” (Nature Communications, 2021).
Like-named read-outs stand apart in the source and are kept apart here.

Tests used:
Calu-3 cells [1] = assay: cells; conditions: Homo sapiens; for Emax: Calu-3, 48 h, read-out: Calu-3 cell count Sinf Average; for EC50: Calu-3, read-out: Calu-3 cell count EC50 GeoMean
HeLa-ACE2 cells [2] = assay: cells; conditions: Homo sapiens; for EC50: HeLa-ACE2, read-out: HeLa-ACE2 cell count EC50 GeoMean; for Emax: HeLa-ACE2, 24 h, read-out: HeLa-ACE2 cell count Sinf Average
SARS-CoV-2 [3] = assay: microbe, parasite or virus in culture; type: cell-based; conditions: for Emax: Severe acute respiratory syndrome coronavirus 2, Calu-3, 48 h, read-out: Calu-3 CoV-2 Sinf Average; for EC50: read-out: Calu-3 CoV-2 EC50 GeoMean
in vitro = conditions: human, Calu-3 uninfected cytotoxicity CC50 GeoMean
Calu-3 cells [4] = conditions: for Calu-3 uninfected cytotoxicity Sinf Average: human
HEK293T [5] = conditions: human
HepG2 [6] = conditions: human
SARS-CoV-2 [7] = assay: microbe, parasite or virus in culture; type: cell-based; conditions: for Emax: Severe acute respiratory syndrome coronavirus 2, HeLa-ACE2, 10 h, read-out: HeLa-ACE2 TOA CoV-2 Sinf Average; for EC50: read-out: HeLa-ACE2 TOA CoV-2 EC50 GeoMean
[8] = Uninfected HeLa-ACE2 24 h live/dead cytotoxicity counter screen; type: cell-based, human; conditions: human, uninfected HeLa-ACE2 cells; read-out: HeLa-ACE2 uninfected cytotoxicity CC50 GeoMean
HeLa-ACE2 cells [9] = assay: as above; type: cell-based, human
HeLa-ACE2 cells [10] = assay: Total cell count in the HeLa-ACE2 TOA (time of addition) assay; type: cell-based, human; conditions: Homo sapiens, HeLa-ACE2; read-out: HeLa-ACE2 TOA cell count EC50 GeoMean
SARS-CoV-2 [11] = assay: microbe, parasite or virus in culture; type: cell-based; conditions: for Emax: Severe acute respiratory syndrome coronavirus 2, HeLa-ACE2, 24 h, read-out: HeLa-ACE2 CoV-2 Sinf Average; for EC50: read-out: HeLa-ACE2 CoV-2 EC50 GeoMean
SARS-CoV-2 [12] = type: cell-based; conditions: combination with remdesivir
HepG2 [13] = assay: HepG2 72 h CellTiter-Glo cytotoxicity; conditions: 72 h
HEK293T [14] = assay: HEK293T 72 h CellTiter-Glo cytotoxicity; conditions: 72 h
[15] = HepG2 72 h CellTiter-Glo cytotoxicity; conditions: human, HepG2 cells
[16] = HEK293T 72 h CellTiter-Glo cytotoxicity; conditions: human, HEK293T cells
[17] = Uninfected Calu-3 48 h Cell-Titer Glo cytotoxicity counter screen; conditions: human, uninfected Calu-3 cells
Calu-3 cells [18] = assay: as above; conditions: curve plateau at infinite concentration
HeLa-ACE2 cells [19] = assay: Total cell count in the HeLa-ACE2 TOA assay; type: cell-based; conditions: Homo sapiens; for EC50: HeLa-ACE2, read-out: HeLa-ACE2 TOA cell count EC50 GeoMean; for Emax: HeLa-ACE2, 10 h, curve plateau at infinite concentration, read-out: HeLa-ACE2 TOA cell count Sinf Average
Description: Supplement 41467_2021_23328_MOESM3_ESM.xlsx, sheet "Table S1" | column: HeLa-ACE2 TOA cell count

[20] = Severe acute respiratory syndrome coronavirus 2, Calu-3, detail column
[21] = Severe acute respiratory syndrome coronavirus 2, HeLa-ACE2, detail column
[22] = human, uninfected HeLa-ACE2 cells, 24 h
[23] = selectivity index, uninfected HeLa-ACE2 CC50 / SARS-CoV-2 EC50
[24] = Severe acute respiratory syndrome coronavirus 2, Calu-3
[25] = Severe acute respiratory syndrome coronavirus 2, HeLa-ACE2
[26] = curve plateau at infinite concentration
[27] = Calu-3 uninfected cytotoxicity CC50 GeoMean

Row | SMILES | Emax (Calu-3 cells [1]) | EC50 (Calu-3 cells [1]) | EC50 (HeLa-ACE2 cells [2]) | Emax (SARS-CoV-2 [3]) | EC50 (SARS-CoV-2 [3]; [20]) | Emax (SARS-CoV-2 [7]) | EC50 (SARS-CoV-2 [7]; [21]) | CC50 at 24 h [8] | EC50 (HeLa-ACE2 cells [10]) | Emax (SARS-CoV-2 [11]) | EC50 (SARS-CoV-2 [11]; [21]) | EC50 (SARS-CoV-2 [3]; [24]) | TOA:HeLa-ACE2 EC50 Ratio (SARS-CoV-2 [7]) | HepG2 72-hour cytotoxicity Sinf Average (HepG2 [13]) | Emax (HeLa-ACE2 cells [2]) | HEK293T 72-hour cytotoxicty Sinf Average (HEK293T [14]) | CC50 at 72 h [15] | Emax (SARS-CoV-2 [3]; [26]) | Emax (SARS-CoV-2 [7]; [26]) | EC50 (SARS-CoV-2 [7]; [25]) | further results
1 | Cc1cccc(/C=N/Nc2cc(N3CCOCC3)n3nc(-c4ccncc4)cc3n2)c1 [APY0201] | 100% | > 9.98 µM | > 9.59 µM | 97% | > 9.39 µM | 100% | > 9.59 µM | > 39.4 µM | > 9.59 µM | 96% | 14 nM |  |  |  |  |  |  |  |  |  | CC50 at 48 h (in vitro): > 27 µM; uninfected Calu-3 CC50 (Calu-3 cells [4]): > 26.965 ×÷ 1.196 (n=6) μM; Calu-3 uninfected cytotoxicity Sinf Average (Calu-3 cells [4]; 48 h): -100%; HEK293T 72-hour cytotoxicty Sinf Average (HEK293T [5]; 72 h): -96%; HepG2 72-hour cytotoxicity Sinf Average (HepG2 [6]; 72 h): -100%; HeLa-ACE2 uninfected cytotoxicity Sinf Average (HeLa-ACE2 cells [9]; [22]): -100%; HeLa-ACE2 SI (SARS-CoV-2 [11]; [23]): > 2853.95
2 | CCN(CC)CCCNc1ccnc2cc(Cl)ccc12 [AQ-13] |  | > 9.98 µM | > 9.6 µM | 100% |  | 100% | > 9.61 µM | 25.9 µM | > 9.61 µM | 101% | 800 nM | > 9.98 µM | 12.002 |  |  |  |  |  |  |  | HeLa-ACE2 synergy score with remdesivi (SARS-CoV-2 [12]): -1.765 δ; CC50 at 48 h (in vitro): > 29.3 µM; uninfected Calu-3 CC50 (Calu-3 cells [4]): > 29.255 ×÷ 1.046 (n=4) μM; Calu-3 uninfected cytotoxicity Sinf Average (Calu-3 cells [4]; 48 h): -100%; HEK293T 72-hour cytotoxicty Sinf Average (HEK293T [5]; 72 h): -100%; HepG2 72-hour cytotoxicity Sinf Average (HepG2 [6]; 72 h): -100%; HeLa-ACE2 uninfected cytotoxicity Sinf Average (HeLa-ACE2 cells [9]; [22]): -100%; HeLa-ACE2 SI (SARS-CoV-2 [11]; [23]): 32.34
3 | COc1cc(-n2cnc3cc(-c4ccc(Cl)cc4)sc3c2=O)ccc1OCCN1CCCC1 [GW-803430] | 100% | > 9.98 µM | > 7.88 µM | 100% |  | 100% | > 9.59 µM | 18.9 µM | > 9.59 µM | 100% |  | 6.57 µM | 5.656 | -100% | 100% | -101% |  |  |  |  | Calu-3 SI (SARS-CoV-2 [3]): 0.88; CC50 (in vitro): 5.81 µM; Calu-3 uninfected cytotoxicity Sinf Average (Calu-3 cells [4]): -116%; HeLa-ACE2 uninfected cytotoxicity Sinf Average (HeLa-ACE2 cells [9]): -100%; HeLa-ACE2 SI (SARS-CoV-2 [11]): 11.16; EC50 (SARS-CoV-2 [11]; [25]): 1700 nM
4 | NC1(c2ccc(-c3nc4ccn5c(=O)[nH]nc5c4cc3-c3ccccc3)cc2)CCC1 [MK-2206] | -100% | > 9.98 µM | > 9.59 µM |  | > 4.9 µM |  |  | > 22.8 µM |  |  | 1100 nM |  |  | -100% |  | -102% | 7.59 µM | 82% | 100% | > 9.39 µM | HeLa-ACE2 synergy score with remdesivi [δ] (SARS-CoV-2 [12]; synergy score δ): 2.087; SI in Calu-3 (SARS-CoV-2 [3]): < 2; EC50 ratio between the standard 24 h and the TOA assay (SARS-CoV-2 [7]): > 8; HeLa-ACE2 uninfected cytotoxicity Sinf Average (HeLa-ACE2 cells [9]; [26]): -100%; Emax (SARS-CoV-2 [11]; [26]): 99%; CC50 at 72 h [16]: 3.88 µM; CC50 at 48 h [17, 27]: 8.7 µM; Calu-3 uninfected cytotoxicity Sinf Average (Calu-3 cells [18]): -100%; EC50 (HeLa-ACE2 cells [19]): > 9.59 µM
5 | CCCCN1CC[C@H](c2ccc(N(C)C)cc2)[C@@H](COc2ccc(C(F)(F)F)cc2)C1 [NNC 090026] |  | > 9.98 µM | > 8.97 µM | 100% | > 8.31 µM | 100% |  | > 15.4 µM | > 9.61 µM | 94% | 2750 nM |  | 1.737 |  | 96% |  |  |  |  | 4.77 µM | Calu-3 SI (SARS-CoV-2 [3]; selectivity index, uninfected Calu-3 CC50 / SARS-CoV-2 EC50): > 2.83; CC50 at 48 h (in vitro): > 23.5 µM; uninfected Calu-3 CC50 (Calu-3 cells [4]): > 23.525 ×÷ 1.612 (n=4) μM; Calu-3 uninfected cytotoxicity Sinf Average (Calu-3 cells [4]; 48 h): -100%; HEK293T 72-hour cytotoxicty Sinf Average (HEK293T [5]; 72 h): -100%; HepG2 72-hour cytotoxicity Sinf Average (HepG2 [6]; 72 h): -100%; HeLa-ACE2 uninfected cytotoxicity Sinf Average (HeLa-ACE2 cells [9]; [22]): -100%; HeLa-ACE2 SI (SARS-CoV-2 [11]; [23]): > 5.59
6 | COc1ccc(C[C@H](N)C(=O)N[C@H]2[C@@H](O)[C@H](n3cnc4c(N(C)C)ncnc43)O[C@@H]2CO)cc1 [Puromycin - cytotoxicity control] | -100% | > 10 µM | 1.55 µM |  | 2.74 µM |  |  | 0.658 µM |  |  | 480 nM |  |  | -101% | 101% | -101% | 1.08 µM | 97% | 103% | 0.316 µM | HeLa-ACE2 uninfected cytotoxicity Sinf Average (HeLa-ACE2 cells [9]; [26]): -100%; Emax (SARS-CoV-2 [11]; [26]): 100%; CC50 at 72 h [16]: 0.829 µM; CC50 at 48 h [17, 27]: 3.95 µM; Calu-3 uninfected cytotoxicity Sinf Average (Calu-3 cells [18]): -101%; EC50 (HeLa-ACE2 cells [19]): > 9.62 µM
7 | CNC(=O)c1cc(Oc2ccc(NC(=O)Nc3ccc(Cl)c(C(F)(F)F)c3)cc2)ccn1 [Sorafenib] | 100% | > 9.36 µM | > 8.31 µM |  |  |  | 3.51 µM | > 8.65 µM |  |  |  | > 5.2 µM |  | -101% | 100% | -107% | 7.15 µM | 100% | 99% |  | HeLa-ACE2 uninfected cytotoxicity Sinf Average (HeLa-ACE2 cells [9]; [26]): -99%; Emax (SARS-CoV-2 [11]; [26]): 100%; EC50 (SARS-CoV-2 [11]; [25]): > 5680 nM; CC50 at 72 h [16]: 3.34 µM; CC50 at 48 h [17]: 5.3 µM; Calu-3 uninfected cytotoxicity Sinf Average (Calu-3 cells [18]): -88%; Emax (HeLa-ACE2 cells [19]): 100%; EC50 (HeLa-ACE2 cells [19]): > 9.61 µM
8 | COc1cc2c(Nc3ccc(Cl)c(Cl)c3F)ncnc2cc1OC[C@@H]1C[C@@H]2CN(C)C[C@@H]2C1 [Tesevatinib, XL647, Kadmon Corporation] | -100% | > 9.97 µM | > 8.16 µM |  | 3.32 µM |  |  | > 20.6 µM |  |  | 2440 nM |  |  | -103% | 100% | -102% | 3.15 µM | 100% | 100% | > 7.61 µM | HeLa-ACE2 uninfected cytotoxicity Sinf Average (HeLa-ACE2 cells [9]; [26]): -100%; Emax (SARS-CoV-2 [11]; [26]): 101%; CC50 at 72 h [16]: 2.67 µM; CC50 at 48 h [17, 27]: 3.52 µM; Calu-3 uninfected cytotoxicity Sinf Average (Calu-3 cells [18]): -105%; Emax (HeLa-ACE2 cells [19]): -100%; EC50 (HeLa-ACE2 cells [19]): > 9.59 µM
9 | COc1cc(C[C@H]2c3cc(OC)c(OC)cc3CCN2C)c(Oc2cc3c(cc2OC)-c2c(OC)c(OC)cc4c2[C@H](C3)N(C)CC4)cc1OC [Thalicarpine] | -100% | > 9.98 µM | > 9.6 µM |  |  | 100% | > 9.61 µM | > 26.6 µM | > 9.61 µM | 96% |  | > 9.98 µM | 16.501 |  |  |  |  |  |  |  | CC50 (in vitro): > 15.3 µM; Calu-3 uninfected cytotoxicity Sinf Average (Calu-3 cells [4]): -92%; HEK293T 72-hour cytotoxicty Sinf Average (HEK293T [5]): -105%; HepG2 72-hour cytotoxicity Sinf Average (HepG2 [6]): -105%; HeLa-ACE2 uninfected cytotoxicity Sinf Average (HeLa-ACE2 cells [9]): -99%; HeLa-ACE2 SI (SARS-CoV-2 [11]): > 45.67; EC50 (SARS-CoV-2 [11]; [25]): 582 nM
